From patent US6613762B2, “Gambogic acid, analogs and derivatives as activators of caspases and inducers of apoptosis” (Cytovia, Inc., priority 1999, dated 2003)

Tests used:
HeLa cells = details: reported by Asano et al., Phytochemistry 41:815-820 (1996); cited from earlier work
HL-60 cells = test: Inhibition of cell proliferation (GI50) and cell death (LC50), HL-60; type: cell-based; details: HL-60, 48 h
Protocol: (§1) T47D, ZR-75-1, PC-3, human prostate cancer cell line DU-145, human non-small cell lung cancer cell line A-549, human small cell lung cancer cell line SHP-77, HL-60 and MRC-5 cells were grown and harvested as in Example 90. […] The samples were mixed by agitation and incubated at 37° C. for 2-4 h in a 5% CO2-95% humidity incubator. […] This determines the possible background absorbance of the test compounds. No absorbance for gambogic acid or its analogs or derivatives was found at 490 nm. After the 2-4 h incubation, the samples were read for absorbance as above (ATest).
(§2) Baseline for GI50 (dose for 50% inhibition of cell proliferation) and LC50 (dose for 50% cell death) of initial cell numbers was determined by adding an aliquot of 90 μl of cells or 90 μl of media, respectively, to wells of a 96-well microtiter plate containing 10 μl of a 10% DMSO in RPMI-1640 media solution. […] The samples were mixed by agitation and incubated at 37° C. for 2-4 h in a 5% CO2-95% humidity incubator. Absorbance was read as above, (AT=0) defining absorbance for initial cell number used as baseline in GI50 determinations and (Amin) defining absorbance for media alone used as baseline in LC50 determinations.
(§3) GI50 (dose for 50% inhibition of cell proliferation)
(§4) LC50 (dose for 50% cell death)
(§5) 50=100×[(ATest−Amin)/(AT=0−Amin)]

KB-V1 cell line = details: reported by Lin et al., Magn. Reson. Chem. 31:340-347 (1993); cited from earlier work
[1] = test system: caspase activity, T47D cells and MRC-5 cells; test: Dose response of caspase activation in T47D versus normal fibroblasts MRC-5; type: cell-based, human; details: 2 h incubation, two-fold serial dilutions (FIG. 4)
Protocol: T47D cells and MRC-5 cells were maintained and harvested as described in Example 90. An aliquot of 45 μl of cells was added to each well of a 96-well microtiter plate. To determine the dose response of gambogic acid for inducing caspase activity, 5 μl of 20 μM gambogic acid in RPMI media was added to wells in triplicates. Two-fold serial dilutions were made for the lower concentrations. After incubation for 2 h, the samples were removed from the 5% CO2-95% humidity incubator and caspase activity was determined by addition of a fluorogenic substrate as described in Example 90.

T47D cells = test: Morphological change of T47D cells (phase contrast); type: cell-based, human; details: 2.5 μM
Protocol: In addition, apoptotic adherent cells in culture lose their ability to remain attached to the culture dish. The ability of gambogic acid to trigger these morphological changes in T47D cells was investigated.
60 mm culture dishes were seeded with 750,000 T47D cells and the cultures were incubated under normal growth conditions (complete medium with 10% FBS) for 24 h. The cells were then treated with 2.5 μM of gambogic acid and further incubated under normal growth conditions for 2 or 6 h. Morphological changes were documented by photographing the cells under phase contrast illumination.

[2] = test system: caspase activity, SHP-77 cells; test: Caspase induction and its inhibition by caspase inhibitor (Example 97), SHP-77; type: cell-based, human; design: key to Inhibition of caspase activity by Inhibitor: The caspase activity detected was inhibited by the caspase inhibitor (+)
Protocol: (§6) T47D, ZR-75, PC3, SHP-77 and A-549 cells were maintained and harvested as described in Example 90. Cells were added to 96-well plates as described in Example 90. The cells were treated with 10 μM gambogic acid, in the presence and in the absence of 10 μM caspase inhibitor cbz-Val-Asp-fmk (Cytovia, Inc.; WO99/18781). The plate was incubated up to 24 h at 37° C in a 5% CO2-95% humidity incubator. Caspase activity was determined by addition of a fluorogenic substrate as described in Example 90.
(§7) Gambogic acid induced caspase activity in a ratio of greater than 2.5 (+) above untreated cell levels in all the tested cancer cell lines (Table IV). The caspase activity detected was inhibited by the caspase inhibitor (+), confirming that the fluorescent signal was due to caspase activity.

ZR-75-1 cells = test: Inhibition of cell proliferation (GI50) and cell death (LC50), ZR-75-1; type: cell-based; details: ZR-75-1, 48 h; read-out: GI50 (dose for 50% inhibition of cell proliferation)
Protocol: as §1, §2, §3, §4, §5

[3] = test system: caspase activity, A-549 cells; test: Caspase induction and its inhibition by caspase inhibitor (Example 97), A-549; type: cell-based, human; design: key to Inhibition of caspase activity by Inhibitor: The caspase activity detected was inhibited by the caspase inhibitor (+)
Protocol: as §6, §7

[4] = test system: caspase activity, T47D cells; test: Caspase induction and its inhibition by caspase inhibitor (Example 97), T47D; type: cell-based, human; design: key to Inhibition of caspase activity by Inhibitor: The caspase activity detected was inhibited by the caspase inhibitor (+)
Protocol: as §6, §7

[5] = test system: human prostate cancer cell line DU-145; test: Inhibition of cell proliferation (GI50) and cell death (LC50), DU-145; type: cell-based; details: DU-145, 48 h; read-out: GI50 (dose for 50% inhibition of cell proliferation)
Protocol: as §1, §2, §3, §4, §5

[6] = test system: caspase activity, PC-3 cells; test: Caspase induction and its inhibition by caspase inhibitor (Example 97), PC-3; type: cell-based, human; design: key to Inhibition of caspase activity by Inhibitor: The caspase activity detected was inhibited by the caspase inhibitor (+)
Protocol: as §6, §7

[7] = test system: poly(ADP)ribose polymerase (PARP) cleavage, PC3 cells; test: PARP cleavage western blot, PC3 cells; type: cell-based, human; details: 5 μM, 4 h (FIG. 5D)
Protocol: Cleavage of the enzyme poly(ADP)ribose polymerase (PARP) by caspase-3 and related proteases is considered to be one of the molecular hallmarks of caspase-mediated apoptosis. Therefore, the ability of gambogic acid to induce PARP cleavage in four different human tumor cell lines (Jurkat cells, HL-60 cells, T47D cells and PC3 cells) was determined.
Cells were cultured in complete growth medium containing 10% FBS and treated with gambogic acid at concentrations of 2.5 μM or 5 μM for 2 to 4 h. Control cultures were treated with a drug vehicle (DMSO), or the well-characterized apoptosis inducer, staurosporine. At the end of the apoptosis induction period, the cells were harvested, washed once with PBS, quick-frozen on dry ice, and stored at −80° C. The cells were then lysed in a standard immunoblotting lysis buffer and samples of the lysates were electrophoresed on 4% to 20% gradient polyacrylamide gels. The proteins in the gels were then transferred to PVDF membranes and probed with a commercially-available rabbit polyclonal antibody to PARP.

SMILES: CC(C)=CCC[C@]1(C)C=Cc2c(O)c3c(c(CC=C(C)C)c2O1)O[C@]12C(=C[C@@H]4C[C@H]1C(C)(C)O[C@@]2(C/C=C(/C)C(=O)O)C4=O)C3=O [Example 1, Gambogic Acid]
- Cytotoxicity to HeLa cells (HeLa cells): cytotoxic
- GI50 (HL-60 cells; read-out: GI50 (dose for 50% inhibition of cell proliferation)): 500 nM
- CC50 (HL-60 cells; read-out: LC50 (dose for 50% cell death)): 700 nM
- Cytotoxicity against KB-V1 cell line (KB-V1 cell line): cytotoxic
- Sensitivity of T47D to induction of caspase activity relative to MRC-5 (dose response) [1]: more sensitive to induction of caspase activity than a normal fibroblast cell line MRC-5
- Morphological change of T47D cells (T47D cells; 2 h (FIG. 1B)): many of the cells have taken on a rounded, phase-bright morphology
- Morphological change of T47D cells (T47D cells; 6 h (FIG. 1C)): most of the cells in the culture are rounded up and are beginning to detach from the dish
- Inhibition of caspase activity by Inhibitor ([2]; SHP-77, 10 μM gambogic acid with 10 μM caspase inhibitor cbz-Val-Asp-fmk): +
- Caspase activity ([2]; SHP-77, 10 μM gambogic acid, up to 24 h): + (Gambogic acid induced caspase activity in a ratio of greater than 2.5 (+) above untreated cell levels)
- GI50 (ZR-75-1 cells): 400 nM
- Inhibition of caspase activity by Inhibitor ([3]; A-549, 10 μM gambogic acid with 10 μM caspase inhibitor cbz-Val-Asp-fmk): +
- Caspase activity ([3]; A-549, 10 μM gambogic acid, up to 24 h): + (Gambogic acid induced caspase activity in a ratio of greater than 2.5 (+) above untreated cell levels)
- Inhibition of caspase activity by Inhibitor ([4]; 10 μM gambogic acid with 10 μM caspase inhibitor cbz-Val-Asp-fmk): +
- Caspase activity ([4]; 10 μM gambogic acid, up to 24 h): + (Gambogic acid induced caspase activity in a ratio of greater than 2.5 (+) above untreated cell levels)
- GI50 [5]: 500 nM
- Inhibition of caspase activity by Inhibitor ([6]; PC-3, 10 μM gambogic acid with 10 μM caspase inhibitor cbz-Val-Asp-fmk): +
- Caspase activity ([6]; PC-3, 10 μM gambogic acid, up to 24 h): + (Gambogic acid induced caspase activity in a ratio of greater than 2.5 (+) above untreated cell levels)
- PARP cleavage [7]: a moderate amount of PARP cleavage product
